Reference: patent EP0185259A2, “Pteridines, process for their preparation, and their use as intermediates or as medicaments” (Dr. Karl Thomae GmbH, priority 1984, dated 1986)

Legend:
[1] = test system: Phosphodiesterase (PDE) von Humanthrombozyten; assay: PDE inhibition (PDE assay), enzyme from human platelets, 3H-cAMP substrate; format: biochemical; conditions: 1 µmol/l 3H-cAMP as substrate, linear regression, read-out: PDE-Hemmung (IC50 in µmol/l) Thrombozyten
Description: (§1) Beispielsweise wurden die Verbindungen • A = 4,7-Dimorpholino-6-phenyl-2-piperazino-pteridin, • B = 4-Morpholino-7-(1-oxidothiomorpholino)-2-piperazino-6-phenyl-pteridin, • C = 7-Benzylamino-6-phenyl-2-piperazino-4-thiomorpholino- pteridin, • D = 7-Dimethylamino-6-phenyl-2-piperazino-4-pyrrolidino- pteridin und • E = 7-Benzylamino-4-(N-methyl-2'-hydroxyethylamino)-2-piperazino-pteridin auf ihre Hemmwirkung auf die Phosphodiesterase (PDE) von Tumorzellen und von Humanthrombozyten in vitro in Anlehnung an die von Pöch et al. beschriebenen Methode wie folgt untersucht (siehe Naunyn-Schmiedebergs Arch. Pharmak.
(§2) Die Phosphodiesterase wurde aus B16 Melanomgewebe von Mäusen durch Zentrifugation des Gewebehomogenates bei 5.000 x g (15 min. 4°C) gewonnen. Die Homogenisation der Gewebe erfolgte durch wiederholtes Frieren/Auftauen und Homogenisation nach Potter-Elvehjem bzw. durch Ultraschall. Der die PDE enthaltende Homogenat-Überstand wurde portioniert und bei -25°C tiefgefroren.
Die Gewinnung der Phosphordiesterase aus Humanthrombozyten erfolgte in gleicher Weise.
(§3) Die Bestimmung der PDE-Hemmung durch die Prüfsubstanzen erfolgte mit 1 µmol/l ^3H-cAMP als Substrat. Die PDE-Hemmung wurde durch Messung des Abbaus des eingesetzten Substrats ^3H-cAMP zu ^3H-AMP im Vergleich zur Kontrolle ohne Prüfsubstanz erfaßt.
(§4) Das gebildete ^3H-AMP wurde durch eine Zinksulfat-Bariumhydroxid-Fällung vom verbliebenen ^3H-CAMP abgetrennt.

[2] = biological target: Phosphodiesterase aus B16 Melanomgewebe von Mäusen; assay: PDE inhibition (PDE assay), enzyme from B16 melanoma tissue, 3H-cAMP substrate; format: biochemical; conditions: PDE from mouse B16 melanoma tissue; 1 µmol/l 3H-cAMP as substrate; linear regression; read-out: PDE-Hemmung (IC50 in µmol/l) B16-Tumorzellen
Description: as §1, §2, §3, §4

Mäusen = assay: Orientating acute toxicity in mice, single oral dose; format: in vivo; conditions: observation time 14 days; for Orientierende aktute Toxizität (Tiere gestorben): single oral dose of 250 mg, animals dead of animals treated; for Orientierende aktute Toxizität: single oral dose
Description: Die orientierende akute Toxizität der zu untersuchenden Substanzen wurde orientierend an Gruppen von je […] Mäusen nach oraler Gabe einer Einzeldosis bestimmt (Beobachtungszeit: 14 Tage) : […]

Row | SMILES | IC50 [1] [µmol/L] | IC50 [2] [µmol/L] | Orientierende aktute Toxizität (Tiere gestorben) (Mäusen) [von 5] | Orientierende aktute Toxizität (Mäusen) [mg]
1 | c1ccc(CNc2nc3nc(N4CCNCC4)nc(N4CCSCC4)c3nc2-c2ccccc2)cc1 [C, 7-Benzylamino-6-phenyl-2-piperazino-4-thiomorpholino-pteridin] | 0.5 | 0.096 | 0 | > 250
2 | c1ccc(-c2nc3c(N4CCOCC4)nc(N4CCNCC4)nc3nc2N2CCOCC2)cc1 [A, 4,7-Dimorpholino-6-phenyl-2-piperazino-pteridin] | 0.54 | 4.3 | 0 | > 250
3 | [O-][S+]1CCN(c2nc3nc(N4CCNCC4)nc(N4CCOCC4)c3nc2-c2ccccc2)CC1 [B, 4-Morpholino-7-(1-oxidothiomorpholino)-2-piperazino-6-phenyl-pteridin] | 2.2 | 3.1 |  | 
4 | CN(C)c1nc2nc(N3CCNCC3)nc(N3CCCC3)c2nc1-c1ccccc1 [D, 7-Dimethylamino-6-phenyl-2-piperazino-4-pyrrolidino-pteridin] | 3.6 | 0.78 | 0 | > 250
5 | CN(CCO)c1nc(N2CCNCC2)nc2nc(NCc3ccccc3)cnc12 [E, 7-Benzylamino-4-(N-methyl-2'-hydroxyethylamino)-2-piperazino-pteridin] | 3.7 | 8.3 | 0 | > 250
